# Like-named read-outs stand apart in the source and are kept apart here.
# How the values were obtained:
# [1] = system: C. difficile 630 ATCC BAA-1382; assay: MIC broth microdilution, C. difficile 630; format: cell-based, Clostridium difficile; details: 24 h, median of at least n = 4; for MIC: Clostridioides difficile, ATCCBAA1382, MtzS
# Description: (§1) All compounds were tested for activity against a set of anaerobic C. difficile bacteria (630 ATCC BAA-1382, NAP1/027 M7404, NAP1/027 ATCC BAA-1803, VPI10463 ATCC 43255, CD26A54_S and CD26A54_R) and representative ESKAPE pathogens S. aureus (MRSA ATCC 43300), E. coli (ATCC 25922), K. pneumoniae (ATCC 700603), A. baumannii (ATCC 19606) and P. aeruginosa (ATCC 27853) using a standard broth microdilution assay. Selected compounds were tested for activity against H. pylori strains (26695, and clinical isolates MtzS 13/25, MtzR 98/285 and MtzR 13/61) using agar plate dilution, and for antimicrobial activity against […] Gram-positive bacterial strains: Enterococcus faecalis (VanA clinical isolate), Enterococcus faecium (MDR VanA ATCC 51559), Streptococcus pneumoniae (MDR ATCC 700677), S. aureus (MRSA ATCC 43300, MRSA clinical isolate, MRSA/DRSA clinical isolate, GISA NARSA NRS 1, GISA NARSA NRS 17, VRSA NARSA VRS1, VRSA NARSA VRS4 and VRSA NARSA VRS10) using broth microdilution. C. difficile strains were grown at 37 °C in a COY anaerobic chamber (5% H2, 10% CO2, 85% N2). H. pylori strains were grown at 37 °C under a microaerobic atmosphere (5% O2, 10% CO2). All facultative anaerobic bacteria were grown at 37 °C with normal atmospheric oxygen levels. All experiments were performed in duplicate with metronidazole, vancomycin, linezolid or colistin as positive controls for relevant strains (see Table 1). Positive growth control of bacteria and DMSO as well as a negative control of only media were included for every plate. Full assay details are provided in the supplementary information.
# (§2) C. difficile ATCC BAA-1382, ATCC BAA-1803, ATCC 43255 and M7404 heat shocked spore stocks (10 µL) were transferred into the anaerobic chamber and 10 µL streaked onto pre-reduced (at least 2.5 hr in anaerobic chamber) BHIS agar plates supplemented with 0.1% w/v sodium taurocholate (BHIS(TA)). Plates were incubated for 24 hours prior to assay to give colonies of size 1-3mm diameter with characteristic uneven borders.
# (§3) The minimum inhibition concentration was determined according to the CLSI Methods with modifications in broth and inoculum for C. difficile according to Babakhani et al.^7,8 Briefly, compounds were prepared to 20X final concentration in 100% water, 60% DMSO and 40% water or 60% DMSO and 40% media. The compounds along with standard antibiotics were serially diluted two-fold across the wells of 96-well non-binding surface plates (Non binding surface, Corning). The plates were placed in the anaerobic chamber overnight to reduce. C. difficile bacteria from BHIS(TA) agar plates were cultured anaerobically in BHIS at 37 °C overnight. A sample of culture was then diluted 40-fold in BHIS broth and incubated at 37 °C for approximately 4.5 hrs. The resultant mid-log phase culture (OD600= 0.5-0.6) was diluted to the final concentration of ~1×10^6 CFU/mL, then 50 µL was added to each well of the compound-containing 96-well plates. This gave final cell concentration of 5×10^5 CFU/mL, final volume 100 µL and 3% maximum DMSO concentration. Compound concentration was typically from 64 to 0.03 µg/mL. An antibiotic standard was included on each 96 well plate as well as a positive growth control (no compound) and sterility control (no bacteria). All the plates were covered and incubated at 37 °C for 24 h. MICs were the lowest concentration showing no visible growth.
# [2] = system: C. difficile VPI10463 ATCC 43255; assay: MIC broth microdilution, C. difficile VPI 10463; format: cell-based, Clostridium difficile; details: VPI 10463, MtzS, 24 h, median of at least n = 4; for MIC: Clostridioides difficile, ATCC 43255 / ATCC BAA-1803
# Description: as §1, §2, §3
# [3] = system: C. difficile NAP1/027 M7404; assay: MIC broth microdilution, C. difficile NAP1/027 M7404; format: cell-based, Clostridium difficile; details: NAP1/027 (footnote d: M7404), MtzS, 24 h, median of at least n = 4; for MIC: Clostridioides difficile, NAP1/027M7404
# Description: as §1, §2, §3
# [4] = system: C. difficile NAP1/027 CD26A54_R; assay: MIC broth microdilution, metronidazole resistant C. difficile CD26A54_R; format: cell-based, Clostridium difficile; details: for MIC: Clostridioides difficile
# [5] = system: E. histolytica HM1:IMSS trophozoites; assay: ATP-bioluminescence growth and survival assay, E. histolytica; format: cell-based, Entamoeba histolytica; details: MtzS, 48 h, anaerobic, n = 3
# Description: (§4) Compounds were tested for antiparasitic activity against E. histolytica (HM1:1MSS strain) and G. lamblia (WB, BRIS/87/HEPU/713 (713), BRIS/83/HEPU/106 (106) and the metronidazole resistant syngeneic line 713-M3 [[15,16]]) using an ATP-bioluminescence based screen for cell growth and survival [[17,18]]. Assay plates were inoculated with trophozoites (5 × 10^3 parasites/well) and incubated in the GasPak™ EZ Anaerobe Gas Generating Pouch Systems (VWR, West Chester, PA) to maintain anaerobic conditions throughout the incubation period. The assays were performed in triplicate using the CellTiter-Glo Luminescent Cell Viability Assay. Metronidazole was used as a positive control.
# (§5) Trophozoites of E. histolytica strain HM1:IMSS and G. lamblia strains WB, BRIS/87/HEPU/713 (713),^10 BRIS/83/HEPU/106 (106)^11 and the metronidazole resistant syngenic line 713-M3^10,11 were axenically maintained in TYI-S-33 medium supplemented with penicillin (100 U/ml), streptomycin (100 µg/ml).^12 E. histolytica and G. lamblia trophozoites were counted using a particle counter (Beckman Coulter, Fullerton, CA). All experiments were performed using trophozoites harvested during the logarithmic phase of growth.
# (§6) A three-fold serial dilution was then performed yielding a concentration range 0.25-625 µM. From this dilution plate, 4 µL were transferred into the 96-well screen plates followed by addition of 96 µL of trophozoites (5,000 parasites) to yield a final 8-point concentration range spanning 0.01- 25 µM. Assay plates were incubated for 48 h at 37 °C in the GasPak^TM EZ Anaerobe Gas Generating Pouch Systems (VWR, West Chester, PA) to maintain anaerobic condition throughout the incubation period. The assays were performed in triplicate using the CellTiter-Glo Luminescent Cell Viability Assay.^13
# [6] = system: G. lamblia WB trophozoites; assay: ATP-bioluminescence growth and survival assay, G. lamblia WB; format: cell-based, Giardia lamblia; details: MtzS, 48 h, anaerobic, n = 3
# Description: as §4, §5, §6
# [7] = 24 hr incubation, read-out: MIC C. difficile NAP1/027 CD26A54_R 24 hr
# [8] = CD26A54_R, MtzR, 48 h growth, BHIS broth, n = 8, read-out: MIC C. difficile NAP1/027 CD26A54_R 48 h
SMILES,MIC [1] [µg/mL],MIC [2] [µg/mL],MIC [3] [µg/mL],"MIC [4, 7] [µg/mL]","MIC [4, 8] [µg/mL]",EC50 ([5]; Entamoeba histolytica) [µM],EC50 ([6]; Giardia duodenalis) [µM],MIC C. difficile 630 ([1]; MtzS) [µg/mL],MIC C. difficile VPI 10463 [2] [µg/mL],MIC C. difficile NAP1/027 (footnote d) [3] [µg/mL],MIC C. difficile NAP1/027 CD26A54_R 24 hr ([4]; 24 hr incubation) [µg/mL],"MIC C. difficile NAP1/027 CD26A54_R 48 h ([4]; CD26A54_R, MtzR, 48 h growth, BHIS broth, n = 8) [µg/mL]",EC50 [5] [µM],EC50 [6] [µM]
"Cc1ncc([N+](=O)[O-])n1CCn1cc(Cn2cccn2)nn1 [Compound 4g, 1-(2-(2-methyl-5-nitro-1H-imidazol-1-yl)ethyl)-4-((1H-pyrazol-1-yl)methyl)-1H-1,2,3-triazole]",1,1,1,4,4,> 25,4.9,,,,,,,
"Cc1ncc([N+](=O)[O-])n1CCn1cc(CCO)nn1 [Compound 4p, 1-(2-(2-methyl-5-nitro-1H-imidazol-1-yl)ethyl)-4-(2-hydroxyethyl)-1H-1,2,3-triazole]",8,8,8,8 to 16,16,> 25,> 25,,,,,,,
"Cc1ncc([N+](=O)[O-])n1CCn1cc(-c2ncccn2)nn1 [Compound 4j, 1-(2-(2-methyl-5-nitro-1H-imidazol-1-yl)ethyl)-4-(2-pyrimidinyl)-1H-1,2,3-triazole]",2,2,2,4,4,> 25,1.7,,,,,,,
"Cc1ncc([N+](=O)[O-])n1CCN=[N+]=[N-] [Compound 3, 1-(2-azidoethyl)-2-methyl-5-nitro-1H-imidazole]",,,,,,,,1,0.5,0.5,4,8,2.1,1.5
"Cc1ncc([N+](=O)[O-])n1CCn1cc(-c2cncnc2)nn1 [Compound 4i, 1-(2-(2-methyl-5-nitro-1H-imidazol-1-yl)ethyl)-4-(5-pyrimidinyl)-1H-1,2,3-triazole]",1,1,1,2,4,> 25,3.3,,,,,,,
"Cc1ncc([N+](=O)[O-])n1CCn1cc(CCC(=O)O)nn1 [Compound 4r, sodium 1-(2-(2-methyl-5-nitro-1H-imidazol-1-yl)ethyl)-4-(carboxyethyl)-1H-1,2,3-triazole]",> 64,> 64,> 64,> 64,> 64,> 25,> 25,,,,,,,
"Cc1ncc([N+](=O)[O-])n1CCn1cc(C(=O)O)nn1 [Compound 4s, 1-(2-(2-methyl-5-nitro-1H-imidazol-1-yl)ethyl)-4-(carboxy)-1H-1,2,3-triazole]",64,64,64,> 64,> 64,> 25,> 25,,,,,,,

# Source: publication PMC4550478, “Metronidazole-triazole conjugates: Activity against Clostridium difficile and parasites” (European Journal of Medicinal Chemistry, 2015)
